{"source": "patent US20260265055A1", "about": "“Sulfine-Based Compounds for Generating Hydrogen Persulfide” (Brown University, priority 2023, published 2026)", "key": {"[1]": {"experiment": "Kinetic study of the reaction between TTS and H2S (UV-Vis, 380 nm)", "format": "physicochemical", "set-up": "unit not given here", "conditions": "TTS 50 μM, Na2S 5 mM, PBS pH 7.4, room temperature; average of 3 trials", "procedure": "FIG. 1A depicts UV-Vis absorbance spectra changes of the reaction between TTS (100 μM) and H2S (200 μM) over 1 min intervals. FIG. 1B depicts representative time-dependent [TTS] changes based on UV-Vis absorption changes at 380 nm of the reaction between TTS (50 μM) and Na2S (5 mM). FIG. 1C depicts representative time-dependent −ln([TTS]/[TTS]0) changes based on UV-Vis absorption changes at 380 nm of the reaction between TTS (50 μM) and Na2S (5 mM). […] See Kolb, H. C. et al., Click chemistry: diverse chemical function from a few good reactions. Angew. Chem. Int. Ed. 2001, 40, 2004-2021.\nKinetic study of the reaction between TTS and H2S: TTS (10 μL, 10 mM in DMSO solution, final concentration=50 μM) and Na2S (20 μL, 500 mM in MilliQ H2O, final concentration=5 mM), reacted in PBS buffer (50 mM, pH=7.4) (2 mL) at room temperature. The kinetics were detected by UV-Vis absorbance spectrum (λ=380 nm) based on the decrease of TTS. This reaction can be seen as a pseudo-first order reaction; the second-order k constant (k) was calculated by: […]\nThe final k reported above was calculated by taking the average of the k values from 3 trials. • To determine [TTS] at each time point: […]"}, "[2]": {"experiment": "SSP4 fluorescence assay to determine generation of H2S2 in buffer", "source_text": "To further evaluate the specificity of TTS in converting H2S to H2S2, SSP4 was used to monitor the formation of H2S2 in this reaction and the results were compared with a series of controls. Details of the SSP4 experiments are provided later herein. SSP4 is a well-established fluorescent sensor for sulfane sulfurs including H2S2. See Shieh, M. et al., Shining a light on SSP4: a comprehensive analysis and biological applications for the detection of sulfane sulfurs. Redox Biol. 2022, 56, 102433. […] Without wishing to be bound by scientific theory, it is believed that thiols would compete with SSP4 to react with H2S2, thereby causing decreased signals.\nSSP4 was dissolved in DMSO to obtain a 200 μM stock solution. CTAB was dissolved in ethanol to yield a 2 mM stock solution. TTS and TT were dissolved in DMSO to make 1 mM stock solutions. Na2S, Na2S2, and L-cysteine were prepared in MilliQ H2O to obtain stock solutions at 2 mM, 1 mM, and 4 mM, respectively. 50 mM PBS buffer was added to individual wells of a black polystyrene, flat-bottomed clear 96-well plate, followed by TTS (25 μM) or TT (25 μM), and Na2S (50 μM), cysteine (100 μM), or Na2S2 (25 μM). For the interference assay, TTS or TT (25 μM) were added to wells with or without Na2S (50 μM). Samples were mixed by pipetting up and down and incubated in the dark at room temperature (rt) for 30 min. Next, CTAB (50 μM) was added to all wells followed by SSP4 (5 μM), and samples were mixed by pipetting up and down. The final volume was 200 μL in each well. Samples were then incubated in the dark at room temperature for another 30 min before being measured on a Molecular Devices SpectraMax iD3 Multi-Mode Microplate Reader (emission 525 nm; excitation 485 nm; integration time […], low PMT sensitivity, attenuation 1, read height 1.00 mm)."}, "[3]": {"experiment": "Measurement of H2S2 formation from JK-1 with TTS (SSP4)", "conditions": "TTS 200 μM + JK-1 400 μM, 30 min incubation, pH 7.4", "procedure": "Measurement of H2S2 formation from JK-1 with TTS: JK-1 (1.1 mg) was added to a 1 dram vial and 4.484 mL of 50 mM PBS (pH 6.0) was then added to obtain a 1 mM stock solution with no headspace in the vial. The solution was vortexed to mix and then incubated in the dark at rt for 20 min. Based on the H2S-release profile reported under the same conditions (see Kang, J. et al., J. Am. Chem. Soc. 2016, 138, 6336), 400 μM of H2S (40% of 1 mM) should be released. The pH of the solution was then adjusted to 7.4 by adding 16 μL 2N NaOH. The same volume of 50 mM PBS (pH 6.0) buffer was added to an empty 1 dram vial and 16 μL of 2N NaOH was added to adjust the pH of the buffer similarly for the controls. After incubation, 500 μL of the pH-adjusted PBS was aliquoted to nine 1.5 mL Eppendorf tubes while the same volume of JK-1 solution was aliquoted into six 1.5 mL Eppendorf tubes. […] 200 μL of each tube was then added to separate wells on a 96-well black flat clear-bottomed plate before being measured on a Molecular Devices SpectraMax iD3 Multi-Mode Microplate Reader (emission 535 nm; excitation 485 nm; integration time […], low PMT sensitivity, attenuation 1, read height 3.00 mm).\nJK-1 in buffer was mixed with TTS to generate H2S2. After a 30 min incubation, the formation of H2S2 was measured by SSP4."}}, "data": [{"smiles": "COC(=O)c1ccc(=S=O)sc1", "note": "[TTS, 2H-thiopyran-2-thione sulfine]", "values": [{"measurement": "second-order rate constant k2 of the reaction between TTS and H2S", "setting": "[1]", "value": 2.7}, {"measurement": "SSP4 fluorescence in interference experiments with thiols", "setting": "[2]; 25 μM TTS + 50 μM Na2S + 200 μM Cys or 1 mM GSH", "value": "decreased but still significant fluorescence"}, {"measurement": "SSP4 fluorescence response (H2S2 formation)", "setting": "[2]; 25 μM compound + 50 μM Na2S (H2S), PBS, SSP4 5 μM", "value": "significant fluorescence response"}, {"measurement": "SSP4 fluorescence response (sulfane sulfur formation)", "setting": "[2]; 25 μM compound + 100 μM Cys, SSP4 5 μM", "value": "No fluorescence"}, {"measurement": "SSP4 fluorescence response (H2S2 formation)", "setting": "[2]; 25 μM compound only, SSP4 5 μM", "value": "No fluorescence"}, {"measurement": "SSP4 fluorescence (H2S2 formation)", "setting": "[3]", "value": "strong fluorescence"}]}]}
